# Source: patent US20220288058A1, “COMBINATION THERAPY USING A MALT1 INHIBITOR AND A BTK INHIBITOR” (Janssen Pharmaceutica NV, priority 2021, published 2022)
# Assays:
# [1] = test system: OCI-LY10 human DLBCL xenografts; assay: Study 2: Compound B monotherapy efficacy, OCI-LY10 xenografts in NSG mice; type: in vivo, mouse; details: for TGI / ΔTGI: Study 2, Day 45; for animals succumbed to disease burden / animals removed from the study due to tumor progression: Study 2; for animals succumbed to disease burden: by 17 days into the 21-day treatment; for animals removed from the study due to tumor progression: by 21 days of treatment
# Procedure: In efficacy study, Study 2, NSG female animals were injected SC into the right find flank with 5×10^6 OCI-LY10 cells in PBS containing 50% Matrigel™. On day 32, mice were randomized based on tumor volume (mean tumor volume of 207 mm^3) and treated orally once or twice daily with BTK inhibitor Compound B according to treatment schedule above (see Table 4) for 21 days. After the last dose on Day 53, blood was collected serially via submandibular vein sampling from 5 animals per time point per treatment group at 2, 4, 12, and 24 hours after dosing. Blood was collected in EDTA and plasma was obtained via centrifugation at 3000 rpm for 10 minutes. Samples were snap frozen and stored at […] for possible future analyses.
# (§1) Tumor volume in SC models was calculated using the formula: tumor volume (mm^3)=(D×d^2/2); where “D” represents the larger diameter and “d” the smaller diameter of the tumor as determined by calliper measurements. Tumor volume data was graphed as the mean tumor volume f SEM.
# The percent ΔTGI was defined as the difference between mean tumor burden of the treatment and control groups, calculated using the following formula: ([(TVc−TVc0)−(TVt−TVt0)]/(TVc−TVc0))×100, where “TVc” is the mean tumor burden of a given control group, “TVc0” is the mean initial tumor burden of a given control group, “TVt” is the mean tumor burden of the treatment group, and “TVt0” is the mean initial tumor burden of the treatment group. The percent tumor growth inhibition (TGI) was defined as the difference between mean tumor volumes of the treated and control groups, calculated as: ((TVc−TVt)/TVc)×100 where “TVc” is the mean tumor volume of the control group and “TVt” is the mean tumor volume of the treatment group. […] Johnson et al., Br J Cancer. 2001; 84(10):1424-1431.
# [2] = test system: NHL and CLL; assay: Clinical trial of Compound B monotherapy in the same patient population; type: in vivo, human
# Procedure: Another clinical trial is being conducted in the same patient population, in which Compound B is administered as a monotherapy. […] Two patients (1 MCL, 1 CLL) achieved PR soon after dose escalation to 280 mg BID at Cycles 7 and 9, respectively. […] Therefore, the response seen in CLL/SLL patients in the combinational study is unlikely to attribute to either Compound A or Compound B alone.
# [3] = Pharmacokinetics in mice; type: in vivo, mouse
# [4] = test system: OCI-Ly10; assay: Proliferation of ABC-DLBCL cell lines (IC50); type: cell-based; details: Homo sapiens, OCI-Ly10; read-out: IC50, inhibition of proliferation
# [5] = test system: OCI-LY10 human DLBCL xenografts; assay: Study 4: combination efficacy (Compound B BID + Compound A BID), OCI-LY10 xenografts in NSG mice; type: in vivo, mouse
# Procedure: Following early animal dropouts in Study 2 due to tumor progression (metastasis and hindlimb paralysis), NSG female mice in Study 3 and Study 4 were injected SC into the right flank with a lower cell number (1×10^6 OCI-LY10 cells) in PBS containing 50% Matrigel™. On day 35 (Study 3) or day 32 (Study 4), mice were randomized based on tumor volume (see Table 4) and dosed orally QD day with Compound B and BID with Compound A (Study 3) or BID for both compounds (Study 4) with various dose concentrations according to treatment schedule above (see Table 4) for a period of 21 days.
# as §1
# The percent ΔTGI was defined as the difference between mean tumor burden of the treatment and control groups, calculated using the following formula: ([(TVc−TVc0)−(TVt−TVt0)]/(TVc−TVc0))×100, where “TVc” is the mean tumor burden of a given control group, “TVc0” is the mean initial tumor burden of a given control group, “TVt” is the mean tumor burden of the treatment group, and “TVt0” is the mean initial tumor burden of the treatment group. The percent tumor growth inhibition (TGI) was defined as the difference between mean tumor volumes of the treated and control groups, calculated as: ((TVc−TVt)/TVc)×100 where “TVc” is the mean tumor volume of the control group and “TVt” is the mean tumor volume of the treatment group. […]
# Tumor regression was calculated when mean tumor burden in treated group was smaller than the tumor burden at start of treatment of the same treated group. The % Tumor Regression (TR), quantified to reflect the treatment-related reduction of tumor volume as compared to baseline independent of the control group, was calculated using the following formula: % TR=(1-mean (TVti/TVt0i))×100 where “TVti” is the tumor burden of individual animals in a treatment group, and “TVt0i” is the initial tumor burden of the animal. […]
# [6] = Study 4, day 52, Compound B 15 mg/kg BID
compound,measurement,setting,value
"C=CC(=O)N[C@H]1CCC[C@H]1NC(=O)c1sc2nccc3c2c1NC(=O)N3c1cnc(CC(C)C)cc1C (atropisomer, axis not shown) [Compound B, N-((1R,2S)-2-acrylamidocyclopentyl)-5-(S)-(6-isobutyl-4-methylpyridin-3-yl)-4-oxo-4,5-dihydro-3H-1-thia-3,5,8-triazaacenaphthylene-2-carboxamide]",TGI,[1]; Compound B 5 mg/kg BID po,26%
same,ΔTGI,[1]; Compound B 5 mg/kg BID po,34%
same,TGI,[1]; Compound B 10 mg/kg QD po,24%
same,ΔTGI,[1]; Compound B 10 mg/kg QD po,30%
same,TGI,[1]; Compound B 30 mg/kg QD po,35%
same,ΔTGI,[1]; Compound B 30 mg/kg QD po,45%
same,TGI,[1]; Compound B 50 mg/kg BID po,78%
same,ΔTGI,[1]; Compound B 50 mg/kg BID po,102%
same,animals succumbed to disease burden,[1]; Compound B 10 mg/kg QD,two animals
same,animals succumbed to disease burden,[1]; Compound B 100 mg/kg QD,a mouse
same,animals removed from the study due to tumor progression,[1]; Compound B 5 mg/kg BID,4/10
same,animals removed from the study due to tumor progression,[1]; Compound B 10 mg/kg QD,7/10
same,animals removed from the study due to tumor progression,[1]; Compound B 15 mg/kg BID,1/10
same,animals removed from the study due to tumor progression,[1]; Compound B 30 mg/kg QD,2/10
same,animals removed from the study due to tumor progression,[1]; Compound B 100 mg/kg QD,3/10
same,patients with PR or CR,"[2]; Compound B monotherapy 140 mg QD and 140 mg BID, 7 treated patients",none of the 7 treated patients had PR or CR
same,patients achieving PR,"[2]; Compound B monotherapy after dose escalation to 280 mg BID, Cycles 7 and 9 (1 MCL, 1 CLL)",Two patients
same,half-life,"[3]; NSG, mouse, in vivo, NSG mice, read-out: half-life (converted)",42 min
same,clearance,[3]; mice,moderate clearance
same,IC50,[4],0.018 µM
same,TGI,[5]; [6],49%
same,ΔTGI,[5]; [6],56%
same,TR (tumor regression),"[5]; Study 4, Compound B 50 mg/kg BID monotherapy",8%
